From patent US20240025907A1, “QUINAZOLINE PAN-KRas INHIBITORS” (Mirati Therapeutics, Inc., priority 2022, published 2024)
Like-named read-outs stand apart in the source and are kept apart here.

How the values were obtained:
Format in all cases: cell-based
[1] = test system: KRas-mediated Phosphorylation of ERK in H727 cells; assay: Cisbio HTRF pERK assay, H727 cells; details: for IC50: 3 hrs compound, read-out: Inhibition (HTRF IC50 nM) of KRas-mediated Phosphorylation of ERK, H727; for inhibition at 0.1 µM: Homo sapiens, NCI-H727, single point at 100 nM
[2] = test system: KRas-mediated Phosphorylation of ERK in A549 cells; assay: Cisbio HTRF pERK assay, A549 cells; details: for IC50: A549 cells, 3 hrs compound, read-out: Inhibition (HTRF IC50 nM) of KRas-mediated Phosphorylation of ERK, A549; for inhibition at 0.1 µM: Homo sapiens, A549, A549 cells, single point at 100 nM
[3] = test system: KRas-mediated Phosphorylation of ERK in H460 cells; assay: Cisbio HTRF pERK assay, H460 cells; details: for IC50: H460 cells, 3 hrs compound, read-out: Inhibition (HTRF IC50 nM) of KRas-mediated Phosphorylation of ERK, H460; for inhibition at 0.1 µM: Homo sapiens, NCI-H460, H460 cells, single point at 100 nM
[4] = test system: KRas-mediated Phosphorylation of ERK in H358 cells; assay: Cisbio HTRF pERK assay, H358 cells; details: for IC50: H358 cells, 3 hrs compound, read-out: Inhibition (HTRF IC50 nM) of KRas-mediated Phosphorylation of ERK, H358; for inhibition at 0.1 µM: Homo sapiens, NCI-H358, H358 cells, single point at 100 nM
[5] = test system: KRas-mediated Phosphorylation of ERK in HCT116 cells; assay: Cisbio HTRF pERK assay, HCT116 cells; details: for IC50: HCT116 cells, 3 hrs compound, read-out: Inhibition (HTRF IC50 nM) of KRas-mediated Phosphorylation of ERK, HCT116; for inhibition at 0.1 µM: Homo sapiens, HCT-116, HCT116 cells, single point at 100 nM
[6] = test system: KRas-mediated Phosphorylation of ERK in AsPC-1 cells; assay: Cisbio HTRF pERK assay, AsPC-1 cells; details: for IC50: 3 hrs compound, read-out: Inhibition (HTRF IC50 nM) of KRas-mediated Phosphorylation of ERK, AsPC-1; for inhibition at 0.1 µM: ASPC1, single point at 100 nM

CN(C)C(=O)c1cc2n(n1)CCCN(c1nc(OC[C@@]34CCCN3C/C(=C\F)C4)nc3c(F)c(-c4ccc(F)c5sc(N)c(C#N)c45)c(Cl)cc13)C2 (atropisomer, axis not shown) [Example 194, 5-((S)-7-(2-amino-3-cyano-7-fluorobenzo[b]thiophen-4-yl)-6-chloro-8-fluoro-2-(((S,Z)-2-(fluoromethylene)tetrahydro-1H-pyrrolizin-7a(5H)-yl)methoxy)quinazolin-4-yl)-N,N-dimethyl-5,6,7,8-tetrahydro-4H-pyrazolo[1,5-a][1,4]diazepine-2-carboxamide]
IC50 [1]: 342 nM
IC50 [2]: 605 nM
IC50 [3]: 427 nM
IC50 [4]: 128 nM
IC50 [5]: 896 nM
IC50 ([6]; Homo sapiens, ASPC1, 3 h): 192 nM

C[C@@]1(O)COCCN(c2nc(OC[C@@]34CCCN3C[C@H](F)C4)nc3c(F)c(-c4ccc(F)c5sc(N)c(C#N)c45)c(Cl)cc23)C1 (atropisomer, axis not shown; (aS)) [Example 193, 2-amino-4-((S)-6-chloro-8-fluoro-2-(((2R,7aS)-2-fluorotetrahydro-1H-pyrrolizin-7a(5H)-yl)methoxy)-4-((S)-6-hydroxy-6-methyl-1,4-oxazepan-4-yl)quinazolin-7-yl)-7-fluorobenzo[b]thiophene-3-carbonitrile]
IC50 [1]: 686 nM
IC50 [6]: 414 nM

N#Cc1c(N)sc2c(F)ccc(-c3c(Cl)cc4c(N5CCCn6nnc(Cl)c6C5)nc(OC[C@@]56CCCN5C[C@H](F)C6)nc4c3F)c12 (single isomer, unassigned) [Example 196]
IC50 [1]: 2820 nM
IC50 [2]: 2420 nM
IC50 [4]: 472 nM
IC50 [6]: 531 nM

N#Cc1c(N)sc2c(F)ccc(-c3c(Cl)cc4c(N5CCCn6nnc(Cl)c6C5)nc(OC[C@@]56CCCN5C[C@H](F)C6)nc4c3F)c12 (single isomer, unassigned) [Example 197]
IC50 [1]: 12 nM
IC50 [2]: 10 nM
IC50 [4]: 3 nM
IC50 [6]: 2 nM

CCc1c(F)ccc2cc(O)cc(-c3c(F)cc4c(N5CCC[C@@](C)(O)C5)nc(OCC5(CN(C)C)CC5)nc4c3F)c12 [Example 11, (R)-1-(2-((1-((dimethylamino)methyl)cyclopropyl)methoxy)-7-((R)-8-ethyl-7-fluoro-3-hydroxynaphthalen-1-yl)-6,8-difluoroquinazolin-4-yl)-3-methylpiperidin-3-ol]
inhibition at 0.1 µM [1]: 49%
inhibition at 0.1 µM ([6]; Homo sapiens): 91%

CCc1c(F)ccc2cc(O)cc(-c3ccc4c(N5CCCC6(CCO6)C5)nc(OC[C@@]56CCCN5C[C@H](F)C6)nc4c3F)c12 (stereo partly drawn) [Example 71, 5-ethyl-6-fluoro-4-(8-fluoro-2-(((2R,7aS)-2-fluorohexahydro-1H-pyrrolizin-7a-yl)methoxy)-4-(1-oxa-6-azaspiro[3.5]nonan-6-yl)quinazolin-7-yl)naphthalen-2-ol]
inhibition at 0.1 µM [1]: 65%
inhibition at 0.1 µM [2]: 82%
inhibition at 0.1 µM [3]: 87%
inhibition at 0.1 µM [4]: 94%
inhibition at 0.1 µM [5]: 38%
inhibition at 0.1 µM ([6]; Homo sapiens): 90%

CCc1c(F)ccc2cc(O)cc(-c3ccc4c(N5CCCn6nc(C(=O)N7CCOCC7)c(Cl)c6C5)nc(OC[C@@]56CCCN5C[C@H](F)C6)nc4c3F)c12 [Example 73, (3-chloro-5-(7-(8-ethyl-7-fluoro-3-hydroxynaphthalen-1-yl)-8-fluoro-2-(((2R,7aS)-2-fluorohexahydro-1H-pyrrolizin-7a-yl)methoxy)quinazolin-4-yl)-5,6,7,8-tetrahydro-4H-pyrazolo[1,5-a][1,4]diazepin-2-yl)(morpholino)methanone]
inhibition at 0.1 µM [1]: 71%
inhibition at 0.1 µM [2]: 71%
inhibition at 0.1 µM [4]: 97%
inhibition at 0.1 µM [5]: 48%
inhibition at 0.1 µM ([6]; Homo sapiens): 97%

CCc1c(F)ccc2cc(O)cc(-c3ccc4c(N5CCCn6nc(C(=O)N(C)C)c(Cl)c6C5)nc(OC[C@@]56CCCN5C[C@H](F)C6)nc4c3F)c12 [Example 74, 3-chloro-5-(7-(8-ethyl-7-fluoro-3-hydroxynaphthalen-1-yl)-8-fluoro-2-(((2R,7aS)-2-fluorohexahydro-1H-pyrrolizin-7a-yl)methoxy)quinazolin-4-yl)-N,N-dimethyl-5,6,7,8-tetrahydro-4H-pyrazolo[1,5-a][1,4]diazepine-2-carboxamide]
inhibition at 0.1 µM [1]: 78%
inhibition at 0.1 µM [2]: 72%
inhibition at 0.1 µM [4]: 98%
inhibition at 0.1 µM [5]: 38%
inhibition at 0.1 µM ([6]; Homo sapiens): 99%

CCc1c(F)ccc2cc(O)cc(-c3ccc4c(N5CCCn6nc(C(=O)N(C)C)c(C)c6C5)nc(OC[C@@]56CCCN5C[C@H](F)C6)nc4c3F)c12 [Example 75, 5-(7-(8-ethyl-7-fluoro-3-hydroxynaphthalen-1-yl)-8-fluoro-2-(((2R,7aS)-2-fluorohexahydro-1H-pyrrolizin-7a-yl)methoxy)quinazolin-4-yl)-N,N,3-trimethyl-5,6,7,8-tetrahydro-4H-pyrazolo[1,5-a][1,4]diazepine-2-carboxamide]
inhibition at 0.1 µM [1]: 73%
inhibition at 0.1 µM [2]: 79%
inhibition at 0.1 µM [4]: 98%
inhibition at 0.1 µM [5]: 29%
inhibition at 0.1 µM ([6]; Homo sapiens): 95%

CCc1c(F)ccc2cc(O)cc(-c3c(F)cc4c(N5CCCn6nc(C(=O)N7CCN(C)CC7)cc6C5)nc(OC[C@@]56CCCN5C[C@H](F)C6)nc4c3F)c12 [Example 76, (5-(7-(8-ethyl-7-fluoro-3-hydroxynaphthalen-1-yl)-6,8-difluoro-2-(((2R,7aS)-2-fluorohexahydro-1H-pyrrolizin-7a-yl)methoxy)quinazolin-4-yl)-5,6,7,8-tetrahydro-4H-pyrazolo[1,5-a][1,4]diazepin-2-yl)(4-methylpiperazin-1-yl)methanone]
inhibition at 0.1 µM [1]: 43%
inhibition at 0.1 µM [2]: 42%
inhibition at 0.1 µM [3]: 31%
inhibition at 0.1 µM [4]: 90%
inhibition at 0.1 µM [5]: 16%
inhibition at 0.1 µM ([6]; Homo sapiens): 90%

CCc1c(F)ccc2cc(O)cc(-c3c(F)cc4c(N5CCCC6(CCO6)C5)nc(OC[C@@]56CCCN5C[C@H](F)C6)nc4c3F)c12 (stereo partly drawn) [Example 77, 4-(6,8-difluoro-2-(((2R,7aS)-2-fluorotetrahydro-1H-pyrrolizin-7a(5H)-yl)methoxy)-4-(1-oxa-6-azaspiro[3.5]nonan-6-yl)quinazolin-7-yl)-5-ethyl-6-fluoronaphthalen-2-ol]
inhibition at 0.1 µM [1]: 66%
inhibition at 0.1 µM [2]: 82%
inhibition at 0.1 µM [3]: 86%
inhibition at 0.1 µM [4]: 96%
inhibition at 0.1 µM [5]: 45%
inhibition at 0.1 µM ([6]; Homo sapiens): 87%

CCc1c(F)ccc2cc(O)cc(-c3c(F)cc4c(N5CCCn6nc(C(=O)N(C)C)c(Cl)c6C5)nc(OC[C@@]56CCCN5C[C@H](F)C6)nc4c3F)c12 [Example 78, 3-chloro-5-(7-(8-ethyl-7-fluoro-3-hydroxynaphthalen-1-yl)-6,8-difluoro-2-(((2R,7aS)-2-fluorohexahydro-1H-pyrrolizin-7a-yl)methoxy)quinazolin-4-yl)-N,N-dimethyl-5,6,7,8-tetrahydro-4H-pyrazolo[1,5-a][1,4]diazepine-2-carboxamide]
inhibition at 0.1 µM [1]: 75%
inhibition at 0.1 µM [2]: 94%
inhibition at 0.1 µM [3]: 81%
inhibition at 0.1 µM [4]: 96%
inhibition at 0.1 µM [5]: 75%
inhibition at 0.1 µM ([6]; Homo sapiens): 98%

CCc1c(F)ccc2cc(O)cc(-c3c(F)cc4c(N5CCCC6(CCO6)C5)nc(OCC5(CN(C)C)CC5)nc4c3F)c12 (stereo not drawn) [Example 82, 4-(2-((1-((dimethylamino)methyl)cyclopropyl)methoxy)-6,8-difluoro-4-(1-oxa-6-azaspiro[3.5]nonan-6-yl)quinazolin-7-yl)-5-ethyl-6-fluoronaphthalen-2-ol]
inhibition at 0.1 µM [1]: 34%
inhibition at 0.1 µM [2]: 33%
inhibition at 0.1 µM [3]: 63%
inhibition at 0.1 µM [4]: 80%
inhibition at 0.1 µM [5]: 24%
inhibition at 0.1 µM ([6]; Homo sapiens): 72%

N#Cc1c(N)sc2c(F)ccc(-c3c(Cl)cc4c(N5CC6CCC(C5)N6)nc(OC[C@@]56CCCN5C/C(=C\F)C6)nc4c3F)c12 [Example 179, (S)-4-(4-((1R,5S)-3,8-diazabicyclo[3.2.1]octan-3-yl)-6-chloro-8-fluoro-2-(((S,Z)-2-(fluoromethylene)tetrahydro-1H-pyrrolizin-7a(5H)-yl)methoxy)quinazolin-7-yl)-2-amino-7-fluorobenzo[b]thiophene-3-carbonitrile]
IC50 [1]: 6810 nM
IC50 [2]: 3140 nM
IC50 [3]: 2320 nM
IC50 [4]: 2610 nM
IC50 [5]: 3770 nM
IC50 [6]: 116 nM
